# Assay results published in patent publication US20050187581A1, “Methods of treating disorders with electric fields” (priority 2000, published 2005).
# Like-named read-outs stand apart in the source and are kept apart here.
# Assays:
# [1] = system: mouse splenocytes; experiment: [Ca^2+]c-high cells in lectin-stimulated mouse splenocytes, fluo-3 flow cytometry; type: cell-based, BALB/c mice; conditions: 5 μg/ml PHA, 1 mM CaCl2; EF-exposed and unexposed cells
# Protocol: In order to avoid contact of the cells and the lower electrode, polycarbonate membrane (Isopore, MILLIPORE, MA USA) was placed between the dish and the insert. Approximately 1 ml of the cell suspension was poured into culture well/space and covered with a lid.
# Female BALB/c mice, 4-7 wk old obtained from CLEA Inc. (Tokyo, Japan) maintained in a conventional animal house equipped with clean air-filtering device were splenectomized under anesthesia, and cell suspensions of splenocytes were prepared. To examine cell viability, the cells were cultivated in Dulbecco's modified Eagle's medium (SIGMA, MO, USA) supplemented with 10% fetal bovine serum (FSB). The cells were maintained in Hank's balanced salt solution (HBSS) (SIGMA, MO, USA) during examination for [Ca^2+]c which was carried out within 4 hr after cell preparation. Cells were stored at 4 degree C. prior to use.
# Splenocytes (10^6 cells/ml) were incubated for 20 min at 37 degrees C. in HBSS containing 2.5 μM fluo-3-acetoxylmethyl (Molecular Probes, USA) [Vandenberghe et al., 1990]. The cell suspension was then diluted 5 times with HBSS containing 1% FBS, incubated for 40 min at 37 degrees C., washed 3 times with assay buffer, and the cells were then suspended in the assay buffer at a concentration of 1×10^6/ml. Throughout the cell preparation, the cell suspensions were mixed gently.
# Considering the reported synergistic interaction between EMF and mitogen (Walleczek and Liburdy, 1990), concanavalin-A (Con-A) (Seikagaku Co., Tokyo, Japan) and phytohemaglutinin (PHA) (SIGMA, MO, USA) were used.
# Taking into account the results of the viability test for exposed murine splenocytes earlier assayed, we chose to use the optimum culture and exposure conditions (60 Hz, 6 μA/cm^2 EF) in carrying out the following five experiments: • (1) cells suspended in HEPES-buffered saline (BS)+1 mM CaCl2 were exposed to EF for a total of 40 min, and 12.5 μg/ml of Con-A was added after the first 8 min of exposure. The control groups consisted of EF-unexposed cells containing Con-A, and EF-exposed cells without Con-A. Percent [Ca^2+]c-high cells was checked at certain exposure points; • (2) cells in HEPES-BS+1 mM CaCl2 were exposed for a total of 12 min, and different concentrations (1 ng-12.5 μg/ml) of Con-A were added after the first 4 min of exposure. The control group was essentially the same as that of the experimental group but without EF-exposure; • (3) cells in HEPES-BS+1 mM CaCl2 were exposed for a total of 8 min, and 5 μg/ml of PHA was added after the first 4 min of exposure. The control groups consisted of EF-unexposed cells containing PHA, and EF-exposed cells without PHA; • (4) cells suspended in HEPES-BS without CaCl2 were exposed for a total of 12 min, and different concentrations (1 ng-5 μg/mil) of Con-A were added after the first 4 min of exposure. The control group was essentially the same as the experimental group but without EF exposure; and • (5) to evaluate the persistent effect of EF exposure, cells suspended in HEPES-BS+[…] were exposed for a total of 4 min, after which different concentrations (0.025-12.5 μg/ml) of Con-A were added, and the generation of [Ca^2+]c-high cells for the next 8 min without EF exposure was monitored with flow cytometry. The control was essentially the same as the experimental group but without any EF-exposure. Statistical Analysis
# [2] = target: T1, human calcium receptor protein (HuPCaR) (Homo sapiens, UniProt P41180); experiment: FURA2 ratio fluorimetry of HuPCaR cells on stepwise additions of extracellular CaCl2; type: cell-based
# T1 construct: expressed in transfected cells; host or cells: HEK (human embryonic kidney) cells, stably transfected
# T1 sequence (P41180 20-1078): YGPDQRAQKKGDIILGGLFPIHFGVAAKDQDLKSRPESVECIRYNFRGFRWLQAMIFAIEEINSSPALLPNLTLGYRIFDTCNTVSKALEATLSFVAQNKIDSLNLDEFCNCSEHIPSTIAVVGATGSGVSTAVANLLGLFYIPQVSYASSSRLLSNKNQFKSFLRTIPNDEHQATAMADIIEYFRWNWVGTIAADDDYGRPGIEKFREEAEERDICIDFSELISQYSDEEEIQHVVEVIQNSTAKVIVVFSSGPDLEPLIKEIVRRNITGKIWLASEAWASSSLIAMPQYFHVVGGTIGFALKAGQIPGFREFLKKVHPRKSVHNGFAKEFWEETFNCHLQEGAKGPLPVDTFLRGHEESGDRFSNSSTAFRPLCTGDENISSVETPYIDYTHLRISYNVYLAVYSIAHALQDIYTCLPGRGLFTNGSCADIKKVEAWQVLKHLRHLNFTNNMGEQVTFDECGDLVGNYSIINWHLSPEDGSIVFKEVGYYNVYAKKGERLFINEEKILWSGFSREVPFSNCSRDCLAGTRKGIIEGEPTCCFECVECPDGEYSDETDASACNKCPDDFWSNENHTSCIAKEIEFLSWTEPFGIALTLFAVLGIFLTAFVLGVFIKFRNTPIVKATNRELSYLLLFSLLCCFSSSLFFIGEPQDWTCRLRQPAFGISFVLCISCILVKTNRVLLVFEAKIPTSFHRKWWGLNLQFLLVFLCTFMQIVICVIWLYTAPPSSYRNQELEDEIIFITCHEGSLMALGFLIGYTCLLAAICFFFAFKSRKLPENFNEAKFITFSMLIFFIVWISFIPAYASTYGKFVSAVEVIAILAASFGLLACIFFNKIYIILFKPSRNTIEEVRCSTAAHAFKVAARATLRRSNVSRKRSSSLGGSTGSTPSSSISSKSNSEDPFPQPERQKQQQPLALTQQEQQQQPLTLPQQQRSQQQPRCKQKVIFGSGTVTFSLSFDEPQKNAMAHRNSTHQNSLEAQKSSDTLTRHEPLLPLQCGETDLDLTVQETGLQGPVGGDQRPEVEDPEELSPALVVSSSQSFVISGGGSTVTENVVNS
# Protocol: In selected experiments, ionomycin (1 micromolar final concentration-stock dissolved in dimethyl sulfoxide) was added in order to quantify differences in FURA2 ratio fluorescence. Ionomycin was added to the cells to obtain a maximal fluorescence signal from the FURA2 for purposes of quantification. FIG. 15 outlines the experimental system that was utilized to obtain the data described below. Cultured HEK or HuPCaR cells were loaded with FURA2 after their growth on plastic tissue culture dishes, scraped and rinsed in buffer to create a cell suspension that was then divided into various aliquots. Selected aliquots were exposed to EF in the EF exposure device. Subsequent to either EF exposure or sham control (no EF) treatments, aliquots of cells were used for standard ratio imaging fluorimetry analysis to measure changes in intracellular Ca^2+ concentrations. Initially, measurements were obtained of the baseline intracellular Ca^2+ concentration for each aliquot of cells as shown by the bracket marked #1 in FIG. 15. […] In an effort to obtain more quantitative data from individual aliquots within an individual experiment as well as comparison of data from different experiments, we incorporated the use of ionomycin as shown in FIG. 13 to determine the maximal FURA2 signal achievable within each aliquot of cells. […]
# [3] = system: AAPH-treated rats; experiment: Plasma lipid peroxide (TBARS) levels in AAPH-treated rats; type: in vivo, Sprague-Dawley rats; conditions: for Plasma levels of lipid peroxide compared to the sham EF-exposed group: AAPH-treated rats, P<0.05 (ascorbic acid), P<0.01 (superoxide dismutase); for Malondialdehyde concentration: plasma lipid peroxide, AAPH 10 mg/kg i.p., ascorbic acid 500 mg/kg p.o., SOD 50 mg/kg s.c., mean ± SEM, n=8
# Protocol: (§1) To examine the effects of EF effect during oxidative stress, rats were divided into five groups (n=8) as follows: 1) non-treatment; 2) treatment with the oxidizing agent, AAPH, on experimental day seven; 3) co-treatment with EF and AAPH; 4) co-treatment with AAPH and the anti-oxidant agent, ascorbic acid; or 5) co-treatment with AAPH and superoxide dismutase. Rats of Group 3 were exposed to a sine wave of 50 Hz, 17,500 V/m intensity, 15 minutes per day for one week. In addition, Groups 1, 2, 4 and 5 were sham EF exposed, in which were maintained for an equal period of time inside the exposure cage with the system turned off. On the seventh day after EF was started, Group 3 was exposed to EF just after administration of AAPH (10 mg/kg, i.p.). In Group 4, ascorbic acid (500 mg/kg, p.o.) was administered 60 minutes before of the AAPH treatment. Superoxide dismutase (50 mg/kg, s.c., Nacalai Tesque, Tokyo, Japan) was administered to Group 5 just before the AAPH treatment. Under pentobarbital (45 mg/kg, i.p.) anesthesia, blood was collected from the abdominal cava vein 90 minutes later after AAPH administration, and the plasma was separated by centrifugation at 1,670×g for 10 minutes at 4° C. The plasma samples were stored at −80° C. until tested.
# Thiobarbituric acid reactive substance (TBARS), as an indicator of the plasma concentration of lipid peroxide, was measured using a commercialized kit (Lipid peroxide-test Wako, Wako Ltd., Osaka, Japan).
# [4] = Antioxidant activity (AOA) of plasma from AAPH-treated rats, against AAPH; type: in vivo, Sprague-Dawley rats; conditions: for AOAAAPH: ascorbic acid 500 mg/kg p.o., SOD 50 mg/kg s.c., mean ± SEM, n=8
# Protocol: as §1
# (§2) Plasma AOA was measured by a method using a derivative of methylene blue. Briefly, 0.1 ml plasma or a solution of ascorbic acid (Wako Ltd., Osaka, Japan) and 0.65 ml distilled water was added into 1.5 ml of Good's buffer adjusted to pH 5.8 (Good et al., 1966), including 1% triton X-100 supplemented with 3,7-bis-demethylamino-10-methyl carbamoyl phenothiazine (MCDP, 40 μM, KYOWA MEDEX Co., Ltd., Tokyo, Japan) and hemoglobin (67.5 μg/ml). After incubation for one minute at 37° C., 0.25 ml of tert-butylhydroperoxide (84 μM, BHP, Aldrich) as an alkoxyl radical initiator was added and reacted for 10 minutes at 37° C. In addition, AOA measurements in a reaction using AAPH (50 mM) as a peroxy radical initiator were conducted in Good's buffer without hemoglobin for 20 minutes at 37° C. A radical initiator not trapped by an antioxidant in each plasma sample will oxidize MCDP. The absorbance of the resultant blue color was subsequently measured by absorbance at 675 nm using a spectrophotometer (150-20, Hitachi). The equation to calculate AOA was the following: AOA (%)=(1−Abs1/Abs2)×100, where Abs1 is the absorbance of the plasma sample, and Abs2 is a value of the blank.
# [5] = Antioxidant activity (AOA) of plasma from AAPH-treated rats, against BHP; type: in vivo, Sprague-Dawley rats; conditions: for Plasma antioxidant activity against BHP: ascorbic acid 500 mg/kg p.o., SOD 50 mg/kg s.c., mean ± SEM, n=8
# Protocol: as §1, §2
# [6] = Antioxidant activity (AOA) of rat plasma, ascorbic acid added in the test tube, AAPH as radical initiator; type: biochemical, Sprague-Dawley rats
# Protocol: (§3) To examine the effects of EF on unstressed rats, rats were exposed to a sine wave of 50 Hz, 17,500 V/m intensity, 15 minutes per day for 1 one week. Each rat in three groups (n=5) was individually treated with an EF or a sham EF, or was not treated. Rats exposed to sham EF were maintained for an equal period of time inside the exposure cage with the system turned off. Under pentobarbital (45 mg/kg, i.p.) anesthesia, blood was collected from the abdominal cava vein after EF exposure on experimental day seven, and the plasma was separated by centrifugation at 1,670×g for 10 minutes at 4° C. The plasma samples were stored at −80° C. until tested.
# (§4) Plasma AOA was measured by a method using a derivative of methylene blue. Briefly, 0.1 ml plasma or a solution of ascorbic acid (Wako Ltd., Osaka, Japan) and 0.65 ml distilled water was added into 1.5 ml of Good's buffer adjusted to pH 5.8 (Good et al., 1966), including 1% triton X-100 supplemented with 3,7-bis-demethylamino-10-methyl carbamoyl phenothiazine (MCDP, 40 μM, KYOWA MEDEX Co., Ltd., Tokyo, Japan) and hemoglobin (67.5 μg/ml). […] The absorbance of the resultant blue color was subsequently measured by absorbance at 675 nm using a spectrophotometer (150-20, Hitachi). The equation to calculate AOA was the following: AOA (%)=(1−Abs1/Abs2)×100, where Abs1 is the absorbance of the plasma sample, and Abs2 is a value of the blank.
# [7] = Antioxidant activity (AOA) of rat plasma, ascorbic acid added in the test tube, BHP as radical initiator; type: biochemical, Sprague-Dawley rats
# Protocol: as §3, §4
# [8] = added to plasma of the non-treatment group, P<0.01
# [9] = ascorbic acid 440 ng/ml added to plasma of non-treatment group, mean ± SEM, n=5
compound,measurement,setting,value
phytohemaglutinin [PHA],[Ca^2+]c-high cells,[1],significant increases
"[Ca+2].[Cl-].[Cl-] [Ca^2+, CaCl2]",EC50,"[2]; FURA2 response method of Quinn et al., read-out: EC50 value for Ca^2+ derived using the method outlined in FIG. 20",3.5 mM
same,EC50,"[2]; calculated from Na+/Ca2+ ratio midpoint 36.6, Standard Experimental Buffer of 125 mM NaCl, FURA2 baseline, read-out: EC50 value for Ca",3.5 mM
superoxide dismutase [SOD],Plasma levels of lipid peroxide compared to the sham EF-exposed group,[3],lower
same,Malondialdehyde concentration,[3],1.139 ± 0.10 nmol/mL
same,Plasma AOA compared to the sham EF-exposed group,[4]; AAPH-treated rats,not different
same,Plasma AOA compared to the non-treatment group,"[4]; AAPH-treated rats, P<0.05",significantly suppressed
same,AOAAAPH,[4]; AAPH-treated rats,22.1 ± 2.5%
same,Plasma antioxidant activity against BHP,[5]; AAPH-treated rats,78.0 ± 2.1%
"O=C1O[C@H]([C@@H](O)CO)C(O)=C1O [Ascorbic acid, ascorbic acid]",Plasma levels of lipid peroxide compared to the sham EF-exposed group,[3],lower
same,Malondialdehyde concentration,[3],1.509 ± 0.05 nmol/mL
same,AOA of plasma against AAPH after addition of ascorbic acid,[6]; [8],significantly elevated
same,AOAAAPH,[6]; [9],62.0 ± 3.8 %
same,AOA of plasma against BHP after addition of ascorbic acid,[7]; [8],significantly elevated
same,AOABHP,[7]; [9],87.7 ± 0.3 %
same,Plasma AOA compared to the other four groups,"[4]; AAPH-treated rats, P<0.01",significantly higher
same,AOAAAPH,[4]; AAPH-treated rats,46.3 ± 3.2 %
same,AOA against BHP compared to the other four groups,"[5]; AAPH-treated rats, P<0.01",increase
same,Plasma antioxidant activity against BHP,[5]; AAPH-treated rats,87.5 ± 0.3 %
"CC(C)(N=NC(C)(C)C(=N)N)C(=N)N.Cl.Cl [AAPH, 2,2′-azobis(2-amidinopropane)dihydrochloride]",Change in plasma AOA against AAPH in rats treated with AAPH,[4]; AAPH 10 mg/kg i.p.,suppression
same,Change in plasma AOA against BHP in rats treated with AAPH,[5]; AAPH 10 mg/kg i.p.,did not show any changes
